Assays:
[1] = target: T1, Muscarinic acetylcholine receptor M5 (Homo sapiens, UniProt P08912); experiment: Displacement of [3H]NMS from human M5 receptor expressed in CHO cells by microplate scintillation counting based radioligand binding assay; format: cell-based
T1 sequence (P08912 whole entry): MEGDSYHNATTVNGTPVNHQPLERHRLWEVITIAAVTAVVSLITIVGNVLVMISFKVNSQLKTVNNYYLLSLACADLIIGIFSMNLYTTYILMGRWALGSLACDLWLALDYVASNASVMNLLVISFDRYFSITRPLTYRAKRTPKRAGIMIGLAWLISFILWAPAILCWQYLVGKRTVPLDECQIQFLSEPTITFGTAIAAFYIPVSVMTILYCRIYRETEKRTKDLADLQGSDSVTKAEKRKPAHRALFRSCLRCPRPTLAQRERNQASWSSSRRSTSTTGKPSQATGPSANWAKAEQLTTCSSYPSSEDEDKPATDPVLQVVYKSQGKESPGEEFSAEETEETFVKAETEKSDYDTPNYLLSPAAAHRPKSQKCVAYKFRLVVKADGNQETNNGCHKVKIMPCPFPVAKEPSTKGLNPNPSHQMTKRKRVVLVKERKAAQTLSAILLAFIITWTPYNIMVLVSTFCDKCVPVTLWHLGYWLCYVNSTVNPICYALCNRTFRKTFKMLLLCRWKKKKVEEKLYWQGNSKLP

[2] = target: T2, Muscarinic acetylcholine receptor M4 (Homo sapiens, UniProt P08173); experiment: Antagonist activity at human M4 receptor expressed in HEK293T cells assessed as inhibition of carbachol-induced response by beta-arrestin engagement assay; format: cell-based, HEK-293T
T2 sequence (P08173 whole entry): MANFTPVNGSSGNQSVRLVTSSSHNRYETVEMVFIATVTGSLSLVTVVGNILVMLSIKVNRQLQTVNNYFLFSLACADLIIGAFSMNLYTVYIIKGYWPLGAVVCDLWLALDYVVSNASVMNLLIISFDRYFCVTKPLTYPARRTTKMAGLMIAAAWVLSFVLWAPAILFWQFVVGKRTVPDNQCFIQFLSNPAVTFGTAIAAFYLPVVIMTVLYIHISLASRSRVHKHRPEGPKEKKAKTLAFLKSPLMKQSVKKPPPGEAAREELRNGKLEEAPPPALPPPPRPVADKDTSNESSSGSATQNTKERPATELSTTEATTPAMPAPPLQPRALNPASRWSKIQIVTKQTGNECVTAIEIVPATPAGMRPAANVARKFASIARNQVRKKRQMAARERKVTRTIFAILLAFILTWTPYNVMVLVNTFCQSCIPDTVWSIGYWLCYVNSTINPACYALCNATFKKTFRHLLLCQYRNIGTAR

[3] = target: T2, Muscarinic acetylcholine receptor M4
[4] = target: T3, Muscarinic acetylcholine receptor M1 (Homo sapiens, UniProt P11229)
T3 sequence (P11229 whole entry): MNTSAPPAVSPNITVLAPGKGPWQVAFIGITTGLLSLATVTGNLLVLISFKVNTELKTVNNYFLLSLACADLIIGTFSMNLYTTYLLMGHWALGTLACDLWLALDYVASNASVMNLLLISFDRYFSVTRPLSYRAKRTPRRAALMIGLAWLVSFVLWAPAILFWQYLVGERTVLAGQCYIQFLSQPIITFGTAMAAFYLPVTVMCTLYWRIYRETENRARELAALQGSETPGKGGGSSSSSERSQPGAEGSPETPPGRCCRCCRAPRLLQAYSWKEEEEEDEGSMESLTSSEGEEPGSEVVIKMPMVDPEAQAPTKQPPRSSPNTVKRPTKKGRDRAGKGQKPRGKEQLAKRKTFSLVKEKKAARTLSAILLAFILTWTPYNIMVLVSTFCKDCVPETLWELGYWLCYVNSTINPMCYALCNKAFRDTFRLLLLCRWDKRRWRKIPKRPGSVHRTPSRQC

[5] = target: T4, Muscarinic acetylcholine receptor M1 (Homo sapiens) (UniProt P11229); experiment: Agonist activity at human M1 receptor expressed in HEK293T cells by BRET based beta-arrestin engagement assay relative to carbachol; format: cell-based; conditions: HEK-293T
T4 sequence (whole entry): T3 sequence (P11229 whole entry)

[6] = target: T3, Muscarinic acetylcholine receptor M1; format: cell-based, HEK-293T
[7] = target: Muscarinic acetylcholine receptor M3 (Homo sapiens, UniProt P20309); experiment: Displacement of [3H]NMS from human M3 receptor expressed in CHO cells by microplate scintillation counting based radioligand binding assay; format: cell-based
[8] = target: T3, Muscarinic acetylcholine receptor M1; experiment: Displacement of [3H]NMS from human M1 receptor expressed in CHO cells by microplate scintillation counting based radioligand binding assay; format: cell-based
[9] = target: T5, Muscarinic acetylcholine receptor M4 (Homo sapiens) (UniProt P08173); experiment: Antagonist activity at human M4 receptor expressed in HEK293T cells assessed as inhibition of carbachol-induced response by BRET based Gi protein activation assay relative to untreated control; conditions: HEK-293T
T5 sequence (whole entry): T2 sequence (P08173 whole entry)

[10] = target: T5, Muscarinic acetylcholine receptor M4 (Homo sapiens); experiment: Agonist activity at human M4 receptor expressed in HEK293T cells by BRET based Gq protein engagement assay relative to carbachol; format: cell-based; conditions: HEK-293T
[11] = target: T3, Muscarinic acetylcholine receptor M1; experiment: Agonist activity at human M1 receptor expressed in HEK293T cells by BRET based Gq protein engagement assay
[12] = target: T3, Muscarinic acetylcholine receptor M1; experiment: Agonist activity at human M1 receptor expressed in HEK293T cells by BRET based beta-arrestin engagement assay
[13] = target: T3, Muscarinic acetylcholine receptor M1; experiment: Agonist activity at human M1 receptor expressed in HEK293T cells by BRET based Gq protein activation assay; format: cell-based, HEK-293T
[14] = target: T2, Muscarinic acetylcholine receptor M4; experiment: Displacement of [3H]NMS from human M4 receptor expressed in CHO cells by microplate scintillation counting based radioligand binding assay; format: cell-based
[15] = target: T5, Muscarinic acetylcholine receptor M4 (Homo sapiens); experiment: Antagonist activity at human M4 receptor expressed in HEK293T cells assessed as inhibition of carbachol-induced response by BRET based Gq protein engagement assay relative to untreated control; format: cell-based; conditions: HEK-293T
[16] = target: T4, Muscarinic acetylcholine receptor M1 (Homo sapiens); experiment: Agonist activity at human M1 receptor expressed in HEK293T cells by BRET based Gq protein activation assay relative to carbachol; format: cell-based; conditions: HEK-293T
[17] = target: T2, Muscarinic acetylcholine receptor M4; experiment: Agonist activity at human M4 receptor expressed in HEK293T cells by BRET based Gq protein activation assay
[18] = target: T4, Muscarinic acetylcholine receptor M1 (Homo sapiens); experiment: Agonist activity at human M1 receptor expressed in HEK293T cells by BRET based Gq protein engagement assay relative carbachol; format: cell-based; conditions: HEK-293T
[19] = target: T2, Muscarinic acetylcholine receptor M4; experiment: Antagonist activity at human M4 receptor expressed in HEK293T cells assessed as inhibition of carbachol-induced response by BRET based Gq protein engagement assay; format: cell-based, HEK-293T
[20] = target: T5, Muscarinic acetylcholine receptor M4 (Homo sapiens); experiment: Antagonist activity at human M4 receptor expressed in HEK293T cells assessed as inhibition of carbachol-induced response by beta-arrestin engagement assay relative to untreated control; format: cell-based; conditions: HEK-293T
[21] = target: T2, Muscarinic acetylcholine receptor M4; experiment: Agonist activity at human M4 receptor expressed in HEK293T cells by BRET based Gq protein engagement assay
[22] = target: T6, Muscarinic acetylcholine receptor M2 (Homo sapiens, UniProt P08172); experiment: Displacement of [3H]NMS from human M2 receptor expressed in CHO cells by microplate scintillation counting based radioligand binding assay; format: cell-based
T6 sequence (P08172 whole entry): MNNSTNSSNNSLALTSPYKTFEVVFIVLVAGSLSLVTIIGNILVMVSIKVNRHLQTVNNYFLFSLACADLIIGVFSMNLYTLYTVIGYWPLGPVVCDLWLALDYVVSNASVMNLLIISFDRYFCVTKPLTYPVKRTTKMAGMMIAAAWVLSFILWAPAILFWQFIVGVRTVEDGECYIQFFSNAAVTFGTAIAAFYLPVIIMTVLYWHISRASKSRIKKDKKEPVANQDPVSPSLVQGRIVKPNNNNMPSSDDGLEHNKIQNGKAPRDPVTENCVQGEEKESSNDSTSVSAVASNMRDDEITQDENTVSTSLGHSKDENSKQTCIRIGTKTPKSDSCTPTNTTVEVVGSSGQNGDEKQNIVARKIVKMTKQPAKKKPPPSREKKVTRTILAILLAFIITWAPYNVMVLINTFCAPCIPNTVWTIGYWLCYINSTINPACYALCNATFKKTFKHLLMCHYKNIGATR

[23] = target: T5, Muscarinic acetylcholine receptor M4 (Homo sapiens); experiment: Agonist activity at human M4 receptor expressed in HEK293T cells by BRET based Gi protein activation assay relative to carbachol; conditions: HEK-293T
[24] = target: T3, Muscarinic acetylcholine receptor M1; format: cell-based, HEK-293T; remark: listed apart in the source
[25] = target: T5, Muscarinic acetylcholine receptor M4 (Homo sapiens); experiment: Agonist activity at human M4 receptor expressed in HEK293T cells by BRET based beta-arrestin engagement assay relative to carbachol; format: cell-based; conditions: HEK-293T

Chain of Muscarinic acetylcholine receptor M3 (P20309 whole entry): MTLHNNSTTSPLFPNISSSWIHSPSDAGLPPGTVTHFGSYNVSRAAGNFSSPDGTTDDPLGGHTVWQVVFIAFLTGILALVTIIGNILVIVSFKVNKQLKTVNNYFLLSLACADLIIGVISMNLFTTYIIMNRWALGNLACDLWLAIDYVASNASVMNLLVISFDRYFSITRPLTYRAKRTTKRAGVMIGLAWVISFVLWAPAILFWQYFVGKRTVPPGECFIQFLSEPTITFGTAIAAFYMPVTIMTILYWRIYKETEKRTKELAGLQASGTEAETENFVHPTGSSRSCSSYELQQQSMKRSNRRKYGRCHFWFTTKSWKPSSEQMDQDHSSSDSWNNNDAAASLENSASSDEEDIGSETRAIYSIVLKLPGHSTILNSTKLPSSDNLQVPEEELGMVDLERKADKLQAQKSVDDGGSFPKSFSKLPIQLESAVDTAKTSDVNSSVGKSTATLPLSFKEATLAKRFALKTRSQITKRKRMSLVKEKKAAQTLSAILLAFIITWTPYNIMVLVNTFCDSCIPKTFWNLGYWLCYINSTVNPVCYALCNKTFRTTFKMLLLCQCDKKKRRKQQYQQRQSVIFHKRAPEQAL

`CN1CCC=C(c2nsnc2OCCCCCCCC2CCN(CCCN3C(=O)CCc4ccccc43)CC2)C1` gave a Ki [1] of 2.29 nM, an IC50 [2] of 145 nM and an IC50 [3] of 1860 nM. It also gave an IC50 [4] of 21.9 nM, an Emax [5] of 42% and an IC50 [6] of 380 nM. For the same compound, the Ki [7] was 0.794 nM, the Ki [8] was 0.912 nM and the Imax [9] was 60%. It also gave an Emax [10] of 18%, an EC50 [11] of 166 nM and an EC50 [12] of 174 nM. It also gave an EC50 [13] of 41.7 nM, a Ki [14] of 0.891 nM and an Imax [15] of 92%. It also gave an Emax [16] of 25%, an EC50 [17] of 35.5 nM and an Emax [18] of 42%. The IC50 [19] was 407 nM, the Imax [20] was 14% and the EC50 [21] was 18.6 nM. It also gave a Ki [22] of 1.38 nM, an Emax [23] of 40% and an IC50 [24] of 741 nM.

For `CN1CCC=C(c2nsnc2OCCCCCC2CCN(CCCN3C(=O)CCc4ccccc43)CC2)C1`, the Ki [1] was 5.62 nM, the IC50 [2] was 355 nM and the IC50 [3] was 631 nM. The IC50 [4] was 4270 nM, the IC50 [6] was 5370 nM and the Ki [7] was 4.68 nM. The Ki [8] was 6.76 nM, the Imax [9] was under 100% and the Emax [10] was under 0%. It also gave an EC50 [13] of 20.4 nM, a Ki [14] of 7.94 nM and an Imax [15] of under 100%. The Emax [16] was 13%, the EC50 [17] was 30.9 nM and the Emax [18] was under 0%. For the same compound, the IC50 [19] was 447 nM, the Imax [20] was under 100% and the EC50 [21] was 7080 nM. For the same compound, the Ki [22] was 11 nM, the Emax [23] was 27% and the IC50 [24] was 646 nM.

For `CCCCCCOc1nsnc1C1=CCCN(C)C1` [XANOMELINE], the Emax [5] was 95%, the Ki [7] was 7.76 nM and the Emax [25] was 42%. The Emax [16] was 77%, the Emax [18] was 54% and the Emax [23] was 94%.
